The target of one series is T1, Toll-like receptor 7 (Mus musculus, UniProt P58681).
T1 sequence (P58681 whole entry): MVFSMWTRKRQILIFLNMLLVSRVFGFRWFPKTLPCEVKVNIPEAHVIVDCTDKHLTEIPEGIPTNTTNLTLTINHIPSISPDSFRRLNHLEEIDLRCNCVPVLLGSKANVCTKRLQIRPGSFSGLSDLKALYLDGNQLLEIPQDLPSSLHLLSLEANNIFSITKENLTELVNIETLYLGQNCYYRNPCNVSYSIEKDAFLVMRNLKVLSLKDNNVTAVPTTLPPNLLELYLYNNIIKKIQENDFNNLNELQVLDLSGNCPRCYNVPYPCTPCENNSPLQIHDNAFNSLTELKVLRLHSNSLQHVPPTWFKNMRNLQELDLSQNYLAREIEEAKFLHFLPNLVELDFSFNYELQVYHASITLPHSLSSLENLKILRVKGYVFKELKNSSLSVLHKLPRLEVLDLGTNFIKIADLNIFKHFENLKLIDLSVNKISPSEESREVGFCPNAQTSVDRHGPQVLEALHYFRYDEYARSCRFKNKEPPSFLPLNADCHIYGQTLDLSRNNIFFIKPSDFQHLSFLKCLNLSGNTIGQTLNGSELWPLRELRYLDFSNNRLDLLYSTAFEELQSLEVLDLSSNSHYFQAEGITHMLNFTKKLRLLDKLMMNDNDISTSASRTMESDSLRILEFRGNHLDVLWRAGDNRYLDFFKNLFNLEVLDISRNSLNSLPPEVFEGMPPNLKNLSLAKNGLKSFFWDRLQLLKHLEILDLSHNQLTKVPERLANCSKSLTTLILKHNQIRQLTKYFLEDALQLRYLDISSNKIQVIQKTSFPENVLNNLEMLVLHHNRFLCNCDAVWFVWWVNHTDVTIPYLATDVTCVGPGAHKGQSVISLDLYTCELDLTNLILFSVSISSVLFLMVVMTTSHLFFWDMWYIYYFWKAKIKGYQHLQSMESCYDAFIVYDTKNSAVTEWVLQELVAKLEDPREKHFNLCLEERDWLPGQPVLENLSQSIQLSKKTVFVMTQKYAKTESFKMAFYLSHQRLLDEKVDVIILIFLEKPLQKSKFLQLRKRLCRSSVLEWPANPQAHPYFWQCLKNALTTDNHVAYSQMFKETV
The experiment in a line: Antagonist activity at TLR7 in mouse splenocytes assessed as inhibition of ssRNA40-induced IL6 production. It counts as cell-based, Splenocyte.

Another series deals with T2, Toll-like receptor 8 (Homo sapiens, UniProt Q9NR97).
T2 sequence (Q9NR97 whole entry): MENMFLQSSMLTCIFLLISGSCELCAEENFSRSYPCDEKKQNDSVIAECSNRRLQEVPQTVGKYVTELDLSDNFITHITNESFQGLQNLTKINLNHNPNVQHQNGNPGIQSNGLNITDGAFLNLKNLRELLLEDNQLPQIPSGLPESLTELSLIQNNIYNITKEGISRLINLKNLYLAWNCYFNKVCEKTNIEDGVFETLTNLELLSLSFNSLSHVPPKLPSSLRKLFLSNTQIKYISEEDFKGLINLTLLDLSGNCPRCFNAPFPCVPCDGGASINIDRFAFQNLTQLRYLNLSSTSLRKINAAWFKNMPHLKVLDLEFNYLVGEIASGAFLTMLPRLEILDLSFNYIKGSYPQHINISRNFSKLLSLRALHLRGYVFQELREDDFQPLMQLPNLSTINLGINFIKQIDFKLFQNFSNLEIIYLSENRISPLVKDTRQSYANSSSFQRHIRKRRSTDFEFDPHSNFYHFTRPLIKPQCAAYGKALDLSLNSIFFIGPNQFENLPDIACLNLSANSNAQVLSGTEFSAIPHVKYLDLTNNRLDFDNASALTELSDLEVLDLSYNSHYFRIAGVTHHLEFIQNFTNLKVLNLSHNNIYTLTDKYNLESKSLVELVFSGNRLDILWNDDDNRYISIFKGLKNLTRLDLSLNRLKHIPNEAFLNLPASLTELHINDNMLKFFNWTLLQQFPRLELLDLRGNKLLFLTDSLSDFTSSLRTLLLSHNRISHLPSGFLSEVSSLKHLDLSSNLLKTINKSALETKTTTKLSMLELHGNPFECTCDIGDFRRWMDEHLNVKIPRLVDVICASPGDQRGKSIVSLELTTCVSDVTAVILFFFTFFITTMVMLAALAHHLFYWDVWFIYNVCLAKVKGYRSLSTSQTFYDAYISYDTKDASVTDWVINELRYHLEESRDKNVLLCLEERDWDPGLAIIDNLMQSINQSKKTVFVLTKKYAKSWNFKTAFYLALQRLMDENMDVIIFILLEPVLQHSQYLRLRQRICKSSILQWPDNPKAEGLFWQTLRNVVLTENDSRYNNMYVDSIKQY
The experiment in a line: Antagonist activity at TLR8 in human THP-1 cells assessed as inhibition of resiquimod-induced TNFalpha production. The series is classed as cell-based.

Series [1] in a line: Terminal half life in BALB/c mouse at 5 mg/kg, iv. It counts as ADME, organism-based. Particulars: in vivo, read-out: beta t1/2 (converted).
Series [2] in a line: Cmax in BALB/c mouse at 20 mg/kg, po. It counts as ADME, organism-based. The arrangement: route oral, dose 20 mg/kg. The conditions noted are these: in vivo.

As a reminder, the IC50 is the concentration needed to halve the response being measured. By Cmax is commonly meant the maximum level reached in the sampled fluid or tissue. With `Cc1cc(-c2ccnc3[nH]ncc23)cnc1OCC12CCC(N)(CC1)CC2`, the IC50 is 4 nM at Toll-like receptor 7 and under 1 nM on Toll-like receptor 8. In addition, the half-life in series [1] is 4 h. In addition, in series [2], the Cmax is 3.23 µM.
